# Data reported in patent US9820996B2, “Preparation method for antithyroid ointment for external application” (priority 2014, dated 2017).
# “Also recorded” adds a separate entry of the source.
# Tested on: hyperthyroidism patients
# Assay: Typical cases of clinical treatment (case reports)
# Format: in vivo, human
# Conditions: propylthiouracil and methimazole taken successively
# From the text: The present example includes following typical cases of clinical treatment.
row,Structure (SMILES),adverse reaction that led to discontinuing oral treatment (patient history)
1,Cn1cc[nH]c1=S [methimazole],severe drug-induced liver damage; also recorded: severe neutropenia; also recorded: acute urticaria
2,CCCc1cc(=O)[nH]c(=S)[nH]1 [propylthiouracil],severe drug-induced liver damage; also recorded: severe neutropenia; also recorded: acute urticaria
